Data set [1] relates to laboratory animals. The settings on record: cited from earlier work.
Data set [2] in a line: relative nephrotoxicity of HPBCD and BCD, intraperitoneal. The data set is classed as in vivo, rat. The note with it: rat, in vivo, ip, BCD 0.75%. Here is the method:
(§1) A first study was conducted to determine the relative nephrotoxicity of HPBCD and BCD. A control group using phosphate buffer solution was also included in the study.
(§2) Three groups of normal rats were utilized in this study. […] Group I rats were given the vehicle solution of phosphate buffer saline (PBS). Group II rats were subdivided into three sub-groups. The first sub-group received a solution having a concentration of 1.5% HPBCD, the second sub-group received a solution having a concentration of 3% HPBCD while the third sub-group received a solution having a concentration of 6% HPBCD. Group III rats were given a solution having a concentration of 0.75% BCD.
(§3) Animals from each group were sacrificed at 24 and 72 hours after injection of the peritoneal solution. The animals were sacrificed under general anesthesia and exsanguinated from the abdominal aorta. Plasma was separated and blood urea nitrogen and creatinine was measured and used as an index of renal toxicity of the solutions.

Data set [3] relates to normal rats. Described as above. The data set is classed as in vivo, rat. The settings on record: for Mortality (died/total): BCD 0.75% w/v, HPBCD 1.5 and 3% w/v, 15 ml/100 g i.p.; for Rats died of kidney failure: in words. Here is the method: as §1, §2, §3
Setting [4] is: 1 day, BCD 0.75%, HPBCD 1.5 and 3%.
Where [5] appears, read: 3 day, BCD 0.75%, HPBCD 1.5 and 3%.

For `OC[C@H]1O[C@@H]2O[C@H]3[C@H](O)[C@@H](O)[C@@H](O[C@H]4[C@H](O)[C@@H](O)[C@@H](O[C@H]5[C@H](O)[C@@H](O)[C@@H](O[C@H]6[C@H](O)[C@@H](O)[C@@H](O[C@H]7[C@H](O)[C@@H](O)[C@@H](O[C@H]8[C@H](O)[C@@H](O)[C@@H](O[C@H]1[C@H](O)[C@H]2O)O[C@@H]8CO)O[C@@H]7CO)O[C@@H]6CO)O[C@@H]5CO)O[C@@H]4CO)O[C@@H]3CO` [BCD, beta-cyclodextrin], the “Renal toxicity (kidney enlargement, death)” value in data set [1] (laboratory animals, reports in literature) was “enlargement of the kidneys and death due to kidney failure”. Moreover, in data set [1] (rat, in vivo), the “Toxicity at high concentrations” value is reported as “toxic”. For the same compound, the “Removal of intravenously administered toxins” value in data set [1] (rats, peritoneal dialysate, Perrin et al.) was “accelerate the removal of intravenously administered toxins in rats”. This compound showed a mortality at 24 h in data set [2] (1d, n = 6) of 16.7%. The same compound yielded a mortality at 72 h in data set [2] (3d, n = 9) of 77.8%. For the same compound, the “Mortality (died/total)” value in data set [3] (1 day) is 1/6. Besides, in data set [3] (setting [4]), the Kidney size entry is given as “enlarged” and the Kidney weight result is on record as “increased”. The compound further registered a BUN in data set [3] (1 day, BCD 0.75%, HPBCD 1.5 and 3%, Table III) of 79.4 mg/dL. In addition, the “Mortality (died/total)” value in data set [3] (3 day) is given as 8/9. In data set [3] (setting [5]), the Kidney size result is reported as “enlarged” and the Kidney weight result is “increased”. In data set [3] (BCD 0.75%, 1d, n = 6), the BUN was found to be 79.4 mg/dL, the “Final body weight Wt (f)” value worked out at 218 g, the “Initial body weight Wt (i)” value is 223 g and the “Left kidney weight (Lt kd)” value is on record as 1272 mg. For the same compound, in data set [3] (BCD 0.75%, 1d, n = 6), the “Left kidney/body weight (Lt kd/wt)” value worked out at 5.83 mg/g, the “Right kidney weight (Rt kd)” value was determined as 1307 mg and the “Right kidney/body weight (Rt kd/wt)” value was determined as 5.98 mg/g. Moreover, in data set [3] (BCD 1d Group), the “Rats died of kidney failure” value was “One rat”. Besides, the “Rats died of kidney failure” value in data set [3] (BCD 3d Group (nine rats)) is “all but two of the nine rats”.

(Values after patent publication US4889634A, “Dialysate solution containing hydroxypropyl-beta-cyclodextrin and method of using same” (priority 1988, dated 1989).)
